Test systems include SK-MEL-5 melanoma; BT-549 breast; SNB-19 CNS; HCT-116 colon; DU-145 prostate; U251 CNS; SK-MEL-28 melanoma; MOLT-4 leukemia; SN12C renal; NCI-H460 lung.
Test in all cases: NCI-60 cell line screen, 48 h

“And” between values parts separate entries of the source, which are not always exact repeats. Equal values may be shown once.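 48-hour exposure; five concentrations; linearly interpolated endpoints. Here, GI50 denotes the concentration required for 50% inhibition of growth. TGI denotes the concentration required for complete inhibition of growth.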

For `CCN(CC)c1ccc(C2NC(=O)c3ccccc3N2)cc1` (stereo not drawn), the TGI in the test on SK-MEL-5 melanoma, with BT-549 breast, with SNB-19 CNS, in the test with HCT-116 colon, in the test on DU-145 prostate and in the test on U251 CNS was above 100 µM in each case. The TGI is above 100 µM with SK-MEL-28 melanoma, above 100 µM in the test with MOLT-4 leukemia, above 100 µM in the test on SN12C renal and 7.14 µM with NCI-H460 lung.

For `Nc1cc(C(F)(F)F)c(-c2cc(N3CCOCC3)nc(N3CCOCC3)n2)cn1`, the GI50 in the test on SK-MEL-5 melanoma was 0.797 µM and 0.587 µM; in the test on BT-549 breast, 0.558 µM and 0.727 µM; in the test with SNB-19 CNS, 2.28 µM and 2.71 µM; in the test with HCT-116 colon it was 1.21 µM and 1.12 µM; with DU-145 prostate, 1.22 µM and 1.79 µM; with U251 CNS it was 1.51 µM and 1.78 µM. In addition, the GI50 with SK-MEL-28 melanoma was 0.555 µM and 0.536 µM; with MOLT-4 leukemia, 0.883 µM and 0.814 µM; with SN12C renal, 1.27 µM and 1.61 µM; with NCI-H460 lung, 0.646 µM and 0.451 µM. For the same compound, the TGI in the test on SK-MEL-5 melanoma was 3.05 µM and 2.56 µM; with BT-549 breast it was > 7.16 µM and 6.67 µM; in the test on SNB-19 CNS, above 100 µM; in the test on HCT-116 colon, > 10 µM and 9.38 µM; with DU-145 prostate it was 9.96 µM and > 33.1 µM; with U251 CNS, above 25 µM. The TGI in the test with SK-MEL-28 melanoma is 5.14 µM and 4.38 µM; in the test on MOLT-4 leukemia, above 100 µM; with SN12C renal it was above 100 µM; in the test with NCI-H460 lung, 7.27 µM and 12.4 µM.

As to `COC1=C(OC)C(=O)C(Sc2ccc3ccccc3c2)=CC1=O`, the TGI in the test on SK-MEL-5 melanoma stood at 13.9 µM; in the test with BT-549 breast, 22.5 µM; with SNB-19 CNS, 32.4 µM; in the test on HCT-116 colon it was 25.9 µM; with DU-145 prostate it was 33.7 µM; with U251 CNS, 21.4 µM. The TGI with SK-MEL-28 melanoma was determined as 41.5 µM; in the test on MOLT-4 leukemia it was 4.86 µM; in the test on SN12C renal, 26.5 µM; in the test with NCI-H460 lung, 43.4 µM.

Regarding `COc1ccc2nc3cc([N+](=O)[O-])ccc3c(NNc3ccccc3)c2c1`, the GI50 in the test on SK-MEL-5 melanoma was 13.2 µM; with BT-549 breast it was 15.9 µM; with SNB-19 CNS, 18.2 µM; in the test on DU-145 prostate, 19.7 µM; in the test with U251 CNS it was 8.08 µM; in the test with SK-MEL-28 melanoma, 15.3 µM. Also, the GI50 with MOLT-4 leukemia is 12.5 µM; in the test with SN12C renal it was 18.9 µM. The TGI in the test on SK-MEL-5 melanoma was 27.3 µM and 40.7 µM; in the test on BT-549 breast, 35.7 µM and > 100 µM; in the test with SNB-19 CNS, 57.1 µM and > 100 µM; in the test on HCT-116 colon, 28.2 µM and 28.6 µM; with DU-145 prostate, 77.8 µM and > 100 µM; in the test on U251 CNS, 22 µM and > 100 µM. Also, the TGI in the test with SK-MEL-28 melanoma is 34.9 µM and > 100 µM; with MOLT-4 leukemia, 65.8 µM and 74.4 µM; in the test on SN12C renal, 71.1 µM and > 74.9 µM; in the test on NCI-H460 lung, 25.2 µM and 42.3 µM.

Consider `COc1cc(/C=C/C(=O)N2CCC=CC2=O)cc(OC)c1OC`, for which the GI50 with SK-MEL-5 melanoma is 3.35 µM; in the test on BT-549 breast it was 2.45 µM; with SNB-19 CNS, 5.55 µM; with HCT-116 colon, 1.8 µM; in the test on DU-145 prostate it was 4.05 µM; with U251 CNS, 3.19 µM. Moreover, the GI50 in the test with SK-MEL-28 melanoma was 2.21 µM; in the test with MOLT-4 leukemia it was 2.74 µM; in the test on SN12C renal it was 2.64 µM; with NCI-H460 lung, 3.36 µM. The TGI came to 12 µM with SK-MEL-5 melanoma; 7.84 µM in the test with BT-549 breast; 20.6 µM in the test with SNB-19 CNS; 4.13 µM with HCT-116 colon; 18.6 µM with DU-145 prostate; 11 µM in the test on U251 CNS. Moreover, the TGI came out at 5.53 µM in the test on SK-MEL-28 melanoma, 9.48 µM with MOLT-4 leukemia, 7.84 µM in the test with SN12C renal and 10.6 µM in the test on NCI-H460 lung.

Consider `O=C(/C=C/C(Cl)(Cl)Cl)Nc1ccc(Cl)cc1`, for which the TGI with SK-MEL-5 melanoma was determined as 23.5 µM; with BT-549 breast, 31.1 µM; in the test on SNB-19 CNS, 32 µM; with HCT-116 colon, 17.6 µM; with DU-145 prostate, 30.6 µM; in the test on U251 CNS, 26.2 µM. Besides, the TGI in the test with SK-MEL-28 melanoma turned out to be 35.1 µM; with MOLT-4 leukemia it was 3.28 µM; in the test on SN12C renal, 25.8 µM; in the test on NCI-H460 lung, 40 µM.

As to `CCCCCCCCCCCCCCCCCCOc1ccccc1CC(=O)OCC[N+](CC)(CC)CC`, the GI50 in the test with SK-MEL-5 melanoma was 0.942 µM; in the test on BT-549 breast, 1.95 µM; in the test with SNB-19 CNS, 1.52 µM; in the test with HCT-116 colon it was 1.61 µM; in the test on DU-145 prostate it was 2.07 µM; in the test on U251 CNS it was 1.24 µM. Further, the GI50 in the test on SK-MEL-28 melanoma is 1.9 µM; with MOLT-4 leukemia, 1.26 µM; with SN12C renal, 1.3 µM; with NCI-H460 lung, 1.73 µM. Moreover, the TGI was determined as 1.75 µM with SK-MEL-5 melanoma; 9.22 µM in the test on BT-549 breast; 5.6 µM with SNB-19 CNS; 7.76 µM in the test on HCT-116 colon; 7.99 µM in the test on DU-145 prostate; 3.56 µM in the test on U251 CNS. In addition, the TGI in the test with SK-MEL-28 melanoma worked out at 7.55 µM; with MOLT-4 leukemia, 3.07 µM; in the test on SN12C renal, 5.68 µM; with NCI-H460 lung it was 6.34 µM.

In the case of `O=Cc1c(-c2ccccc2)[nH]c2ccccc2c1=O`, the TGI in the test with SK-MEL-5 melanoma is 53.9 µM; in the test on BT-549 breast, above 100 µM; with SNB-19 CNS, above 100 µM; in the test on HCT-116 colon it was above 100 µM; in the test with DU-145 prostate it was above 100 µM; in the test on U251 CNS it was above 100 µM. The TGI in the test with SK-MEL-28 melanoma, in the test with MOLT-4 leukemia, with SN12C renal and in the test with NCI-H460 lung was above 100 µM throughout.

Turning to `NC(Cc1c[nH]c2ccc(F)cc12)C(=O)O` (stereo not drawn), the GI50 with SK-MEL-5 melanoma was 375 µM; in the test on BT-549 breast, 580 µM; with SNB-19 CNS it was 1680 µM; with HCT-116 colon, 853 µM; in the test with DU-145 prostate, 1310 µM; with U251 CNS, 728 µM. In addition, the GI50 is 795 µM in the test on SK-MEL-28 melanoma, 1030 µM with MOLT-4 leukemia, 918 µM in the test with SN12C renal and 730 µM in the test with NCI-H460 lung. Besides, the TGI in the test on SK-MEL-5 melanoma was 711 µM; in the test on BT-549 breast, 1620 µM; in the test on SNB-19 CNS, above 2500 µM; with HCT-116 colon, above 2500 µM; in the test with DU-145 prostate it was above 2500 µM; in the test on U251 CNS, above 2500 µM. Besides, the TGI in the test with SK-MEL-28 melanoma, in the test with MOLT-4 leukemia, in the test with SN12C renal and with NCI-H460 lung was above 2500 µM in each case.
